According to ChEMBL document CHEMBL1157890, “Bioactivity-guided isolation of mosquitocidal constituents from the rhizomes of Plumbago capensis Thunb” (2010):
In brackets after ≈: the same amount, converted by molar mass. Activity calls are given as the source filed them. The calls are words filed in the database; no cut-off is given here.

Key:
Aedes aegypti [1] = test: Larvicidal activity against Aedes aegypti fourth instar larvae at 60 ug/ml after 24 hrs; assay type: functional, organism-based
Aedes aegypti [2] = test: Larvicidal activity against Aedes aegypti fourth instar larvae after 24 hrs; assay type: functional; details: for LC50: Aedes aegypti, 24 h
Aedes aegypti [3] = test: Larvicidal activity against Aedes aegypti fourth instar larvae at 20 ug/ml after 24 hrs; assay type: functional
Aedes aegypti [4] = test: Larvicidal activity against Aedes aegypti fourth instar larvae at 6.5 ug/ml after 24 hrs; assay type: functional

| SMILES | Activity (Aedes aegypti [1]) | LC90 (Aedes aegypti [2]) [µg/mL] | LC50 (Aedes aegypti [2]) [µg/mL] | Activity (Aedes aegypti [3]) [%] | Activity (Aedes aegypti [4]) [%] |
| --- | --- | --- | --- | --- | --- |
| C[C@H]1C[C@H](O)c2cccc(O)c2C1=O | inactive | – | – | – | – |
| CC1=CC(=O)c2c(O)ccc(-c3ccc(O)c4c3C(=O)C(C)=CC4=O)c2C1=O [MARITINONE] | – | 53.87 (≈ 144 µM) | 40.7 (≈ 109 µM) | – | – |
| COC1=C(C)C(=O)c2cccc(O)c2C1=O | – | 55.72 (≈ 255 µM) | 31.5 (≈ 144 µM) | – | – |
| CC1=CC(=O)c2c(ccc(O)c2O)C1=O | – | 19.28 (≈ 94.4 µM) | 13.6 (≈ 66.8 µM) | 100 | – |
| C[C@H]1CC(=O)c2c(O)cccc2[C@H]1O [ISOSHINANOLONE] | – | 4.1 (≈ 21.3 µM) | 1.26 (≈ 6.56 µM) | – | – |
| C=C(C)[C@H]1Cc2c(ccc3c2O[C@@H]2COc4cc(OC)c(OC)cc4[C@@H]2C3=O)O1 [ROTENONE] | – | 25 (≈ 63.4 µM) | 6.2 (≈ 15.7 µM) | – | – |
| CC1=CC(=O)c2c(ccc(C3=C(C)C(=O)c4cccc(O)c4C3=O)c2O)C1=O | inactive | – | – | – | – |
| CC1=CC(=O)c2c(ccc(-c3cc(O)c4c(c3C)C(=O)CCC4=O)c2O)C1=O | – | 42.72 (≈ 114 µM) | 31.2 (≈ 82.9 µM) | – | – |
| CC1=CC(=O)c2c(O)cccc2C1=O [PLUMBAGIN] | – | 6.56 (≈ 34.9 µM) | 5.43 (≈ 28.9 µM) | – | 100 |
